How the values were obtained:
human GPR84 receptor = target: T1, human GPR84 receptor (Homo sapiens, UniProt Q9NQS5); assay: Gαi biosensor BRET assay in HEK293 cells (antagonism of ZQ-16); assay type: cell-based; settings: for inhibition at 10 µM: HEK293, single concentration 10 μM (designated F); for IC50: HEK293 cells, antagonism of 200 nmol/L ZQ-16; for inhibition at 1 µM: HEK293, single concentration 1 μM (designated A°); for inhibition at 25 µM: HEK293, single concentration 25 μM (designated I); for inhibition at 5 µM: HEK293, single concentration 5 μM (designated D); for inhibition at 2 µM: HEK293, single concentration 2 μM (designated A)
T1 construct: host or cells: HEK293, transient transfection
How it was run: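 Antagonist mode: test compound 5 min at 37° C, followed by ZQ-16 agonist (200 nmol/L, 5 min, room temperature), in HEK293 cells transfected with GPR84 plus Rluc8-tagged Gαi2, GFP10-Gγ2 and Gβ1. Readout as GFP10/Rluc8 emission ratio after 5 μmol/L coelenterazine 400A, net of Rluc8-only and vehicle signal.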

neutrophils = assay: Neutrophil migration assay (embelin as chemotactic agent, ATPlite readout); assay type: cell-based; settings: for IC50: Neutrophil, human neutrophils, embelin as chemotactic agent, read-out: Human Neutrophil migration inhibition IC50; for Human Neutrophil migration inhibition - fold potency to Control Compound: normalized to GPR84 antagonist Control Compound (average IC50 131 nM)
Experimental: Neutrophil migration assay. After isolation, neutrophils were resuspended in chemotaxis buffer (DMEM supplemented with 10 mM HEPES) at a concentration of 8.9×10^6 cells/ml. In a 96-well plate, 20 μl of compound solution in chemotaxis buffer is added to 180 μl of cell suspension. After incubation at 37° C. for 30 minutes, 75 μl of cell suspension is transferred in the upper chamber of a 5 μm pore size Corning HTS transwell. 235 μl of chemotaxis buffer containing the chemotactic agent (embelin) is added to the lower chamber of the transwell. After a 60-minute incubation time at 37° C. in 5%0 C02, the upper chamber of the transwell is removed and the plate is centrifuged at 1500 rpm for 6 minutes. Supermatant is removed and cells resuspended in 100 ul of PBS. ATP content was assessed using ATPlite Luminescence Assay System® according to manufacturer instructions (Perkin Elmer, Buckinghamshire, UK). Briefly, 50 μl of ATPlite buffer and 50 μl of lysis solution is added to the lower chamber of the Transwells. After incubation at room temperature, in the dark with constant agitation for 5 minutes, 150 μl of cell lysate is transferred in a 96 wells white plate and incubated for 10 minutes in the dark. Luminescence is read on a TECAN plate reader, Infinite M1000 (Tecan, Morrisville, NC).
The compound numbers correspond to the compound numbers in Table 1. […] Normalization of the results takes the donor's variation into account.

T1 sequence (Q9NQS5 whole entry): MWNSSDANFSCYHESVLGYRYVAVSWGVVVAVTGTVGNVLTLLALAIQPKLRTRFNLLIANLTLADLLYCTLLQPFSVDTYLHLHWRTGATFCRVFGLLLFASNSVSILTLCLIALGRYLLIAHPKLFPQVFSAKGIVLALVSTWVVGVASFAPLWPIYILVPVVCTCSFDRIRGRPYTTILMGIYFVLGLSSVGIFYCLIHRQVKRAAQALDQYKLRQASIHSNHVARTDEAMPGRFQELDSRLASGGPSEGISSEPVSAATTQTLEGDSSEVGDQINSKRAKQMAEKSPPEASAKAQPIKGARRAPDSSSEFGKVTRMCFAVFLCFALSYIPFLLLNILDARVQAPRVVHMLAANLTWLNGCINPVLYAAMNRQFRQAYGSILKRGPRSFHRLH

inhibition at 10 µM (human GPR84 receptor) [%] | IC50 (human GPR84 receptor) [nM] | IC50 (neutrophils) [nM] | SMILES | Human Neutrophil migration inhibition - fold potency to Control Compound (neutrophils) | other results
≤ 25 | 1000 to 3000 | 1000 to 3000 | Cc1cc(C#CCNc2ccccc2)ccc1-c1cn(C[C@@H]2CCCCO2)nn1 (stereo in doubt) [Compound I-144] | C (IC50≤0.5-fold relative to Control Compound) | 
 | ≤ 300 | ≤ 300 | CN(C)c1cc(N2CC(C)(CO)C2)ccc1-c1cn(C[C@H]2CC(C)(C)CO2)nn1 (stereo in doubt) [Compound I-588] | A (IC50 of >1.0-fold relative to Control Compound) | inhibition at 1 µM (human GPR84 receptor): > 75%
 | ≤ 300 | ≤ 300 | CN(C)c1cc(N2CC(C)(CO)C2)ccc1-c1cn(C[C@@H]2CC(C)(C)CO2)nn1 (stereo in doubt) [Compound I-589] | A (IC50 of >1.0-fold relative to Control Compound) | inhibition at 1 µM (human GPR84 receptor): > 75%
50 to 75 | ≤ 300 | 300 to 1000 | Cc1cc(N2CCN(Cc3ccccn3)CC2)ccc1-c1cn(C[C@H]2CCC(F)(F)CO2)nn1 (stereo in doubt) [Compound I-635] | C (IC50≤0.5-fold relative to Control Compound) | 
> 75 | ≤ 300 | ≤ 300 | Cc1cc(N2CCN(Cc3ccccn3)CC2)ccc1-c1cn(C[C@@H]2CCC(F)(F)CO2)nn1 (stereo in doubt) [Compound I-636] | A (IC50 of >1.0-fold relative to Control Compound) | 
 | > 3000 | > 3000 | Cc1ccc(C#CC2CC2)cc1-c1nnn(CC2CCCCO2)n1 (centres unmarked) [Compound I-7] | C (IC50≤0.5-fold relative to Control Compound) | inhibition at 25 µM (human GPR84 receptor): > 75%
> 75 | 1000 to 3000 | ≤ 300 | Cc1ccc(C#CC2CC2)cc1-n1nc(CC2CCCCO2)oc1=O (centres unmarked) [Compound I-14] | A (IC50 of >1.0-fold relative to Control Compound) | 
> 75 | 300 to 1000 | ≤ 300 | Cc1ccc(C#CC2CC2)cc1-n1nc(CC2CCCO2)oc1=O (centres unmarked) [Compound I-17] | B (IC50 of >0.5-≤1.0-fold relative to Control Compound) | 
 | > 3000 | 1000 to 3000 | Cc1cc(C#CC2CC2)ccc1-c1cn(CC2CCCCO2)nn1 (centres unmarked) [Compound I-34] | C (IC50≤0.5-fold relative to Control Compound) | inhibition at 6.25 µM (human GPR84 receptor; HEK293, single concentration 6.25 μM (designated E)): 50 to 75%
 | 1000 to 3000 | 1000 to 3000 | Cc1ccc(C#CC2CC2)cc1-c1cn(CC2CCCCO2)nn1 (centres unmarked) [Compound I-65] | C (IC50≤0.5-fold relative to Control Compound) | inhibition at 25 µM (human GPR84 receptor): > 75%
 | > 3000 | 1000 to 3000 | Cc1cc(C#CC(C)C)ccc1-c1cn(CC2CCCCO2)nn1 (centres unmarked) [Compound I-66] | C (IC50≤0.5-fold relative to Control Compound) | 
 | 1000 to 3000 | 300 to 1000 | Cc1cc(C#CC(C)(C)C)ccc1-c1cn(CC2CCCCO2)nn1 (centres unmarked) [Compound I-67] | B (IC50 of >0.5-≤1.0-fold relative to Control Compound) | 
 | 1000 to 3000 | 300 to 1000 | Cc1cc(C#CCNc2ccccc2)ccc1-c1cn(CC2CCCCO2)nn1 (centres unmarked) [Compound I-68] | B (IC50 of >0.5-≤1.0-fold relative to Control Compound) | inhibition at 5 µM (human GPR84 receptor): 50 to 75%
 | 300 to 1000 | ≤ 300 | Cc1cc(N2CC(C)(C)C2)ccc1-c1cn(CC2CCCCO2)nn1 (centres unmarked) [Compound I-75] | B (IC50 of >0.5-≤1.0-fold relative to Control Compound) | inhibition at 25 µM (human GPR84 receptor): > 75%
 | 300 to 1000 | ≤ 300 | Cc1cc(C#CCN(C)Cc2ccccc2)ccc1-c1cn(CC2CCCCO2)nn1 (centres unmarked) [Compound I-76] | B (IC50 of >0.5-≤1.0-fold relative to Control Compound) | inhibition at 5 µM (human GPR84 receptor): > 75%
 | 300 to 1000 | ≤ 300 | CCc1cc(C#CC2CC2)ccc1-c1cn(CC2CCCCO2)nn1 (centres unmarked) [Compound I-77] | A (IC50 of >1.0-fold relative to Control Compound) | inhibition at 5 µM (human GPR84 receptor): > 75%
 |  |  | Cc1cc(C#CC2CC2)cnc1-c1cn(CC2OCC3(CCC3)CO2)nn1 [Compound I-840] |  | inhibition at 2 µM (human GPR84 receptor): > 75%
 |  |  | Cc1cc(C#CCn2ccnn2)cnc1-c1cn(CC2CCCCO2)nn1 (centres unmarked) [Compound I-841, 5-(3-(1H-1,2,3-triazol-1-yl)prop-1-yn-1-yl)-3-methyl-2-(1-((tetrahydro-2H-pyran-2-yl)methyl)-1H-1,2,3-triazol-4-yl)pyridine] |  | inhibition at 2 µM (human GPR84 receptor): > 75%
 |  |  | Cc1ccc(C#CC2CC2)cc1N(C)c1cn(CC2OCC3(CC3)CO2)nn1 [Compound I-842] |  | inhibition at 2 µM (human GPR84 receptor): 50 to 75%
> 75 |  |  | Cc1cc(C#CCNC(=O)C(F)(F)F)cnc1-c1cn(CC2CCCCO2)nn1 (centres unmarked) [Compound I-843, 2,2,2-trifluoro-N-(3-(5-methyl-6-(1-((tetrahydro-2H-pyran-2-yl)methyl)-1H-1,2,3-triazol-4-yl)pyridin-3-yl)prop-2-yn-1-yl)acetamide] |  | 
50 to 75 |  |  | Cc1ccc(Cl)cc1N(C)c1cn(CC2OCC3(CC3)CO2)nn1 [Compound I-844] |  | 
> 75 |  |  | CC1(C)COC(Cn2cnc(-c3ncc(C#CCN4CC(C)(C)C4)cc3OC3CC3)c2)OC1 [Compound I-845] |  | 

inhibition at 10 µM (human GPR84 receptor) [%] | IC50 (human GPR84 receptor) [nM] | IC50 (neutrophils) [nM] | SMILES | Human Neutrophil migration inhibition - fold potency to Control Compound (neutrophils) | other results
≤ 25 |  |  | CC(C)OCC#Cc1cnc(-c2cn(CC3OCC(C)(C)CO3)nn2)c(OC(C)C)c1 [Compound I-846] |  | 
≤ 25 |  |  | COCC#Cc1cnc(-c2cn(CC3OCC(C)(C)CO3)nn2)c(OCC(F)(F)F)c1 [Compound I-847] |  | 
≤ 25 |  |  | COCC#Cc1cnc(-c2cn(CC3OCC(C)(C)CO3)cn2)c(OC2CC2)c1 [Compound I-848] |  | 
> 75 |  |  | CN(C)c1cc(N2CC3(COC3)C2)c(F)cc1-c1cn(CC2OCC(C)(C)CO2)nn1 [Compound I-849] |  | 
> 75 |  |  | CC#Cc1ccc(C)c(N(C)c2cn(CC3OCC4(CC4)CO3)nn2)c1 [Compound I-850] |  | 
≤ 25 |  |  | CCc1cc(C#CCNC2CC2)ccc1-c1cn(CC2OCC(C)(C)CO2)nn1 [Compound I-851] |  | 
 |  |  | CCc1cc(C#CCN(C)C)ccc1-c1cn(CC2OCC(C)(C)CO2)nn1 [Compound I-852] |  | inhibition at 2 µM (human GPR84 receptor): > 75%
≤ 25 |  |  | CN(C)c1cc(N2CC3(COC3)C2)ccc1-c1cn(CC2OCC3(CC3)CO2)nn1 [Compound I-853] |  | 
 |  |  | CN(C)c1cc(N2CC3(CCOCC3)C2)ccc1-c1cn(CC2OCC(C)(C)CO2)nn1 [Compound I-854] |  | inhibition at 2 µM (human GPR84 receptor): > 75%
 |  |  | O=C(O)c1cnc(-c2cn(CC3OCC4(CC4)CO3)nn2)c(OC2CC2)c1 [Compound I-855] |  | inhibition at 2 µM (human GPR84 receptor): > 75%
> 75 |  |  | CC1(C)COC(Cn2cc(-c3ncc(C#CCNC4CC4)cc3OC3CC3)nn2)OC1 [Compound I-856] |  | 
≤ 25 |  |  | CCc1cc(C#CCN(C)C2CC2)ccc1-c1cn(CC2OCC(C)(C)CO2)nn1 [Compound I-857] |  | 
 |  |  | CN(CC#Cc1cnc(-c2cn(CC3OCC(C)(C)CO3)nn2)c(OC2CC2)c1)C1CC1 [Compound I-858] |  | inhibition at 2 µM (human GPR84 receptor): > 75%
 |  |  | CCc1cc(C#CCNC)ccc1-c1cn(CC2OCC(C)(C)CO2)nn1 [Compound I-859] |  | inhibition at 2 µM (human GPR84 receptor): > 75%
> 75 |  |  | CC(C)C#Cc1cnc(-c2cn(CC3OCC4(CC4)CO3)nn2)c(OC2CC2)c1 [Compound I-861] |  | 
50 to 75 |  |  | FC1(F)CC(C#Cc2cnc(-c3cn(CC4OCC5(CC5)CO4)nn3)c(OC3CC3)c2)C1 (centres unmarked) [Compound I-862] |  | 
 |  |  | CN(C)c1cc(N2CCOCC2)ccc1-c1cn(CC2OCC(C)(C)CO2)nn1 [Compound I-863] |  | inhibition at 2 µM (human GPR84 receptor): > 75%
25 to 50 | 300 to 1000 |  | Cc1cc(N2CC(C)(C)C2)ccc1-c1cn(CC2CCCCO2)nn1 (centres unmarked) [Compound I-864] |  | 
≤ 25 | 300 to 1000 |  | CCc1cc(C#CC2CC2)ccc1-c1cn(CC2CCCCO2)nn1 (centres unmarked) [Compound I-865] |  | 
 | 1000 to 3000 |  | Cc1cc(C#CC2CC2)cnc1-c1cn(CC2CCCCO2)nn1 (centres unmarked) [Compound I-866] |  | 
 | ≤ 300 |  | Cc1cc(C#CCN2CCN(c3ccccc3)CC2)ccc1-c1cn(CC2CCCCO2)nn1 (centres unmarked) [Compound I-867] |  | 
25 to 50 |  |  | Cc1cc(C2CC2)cnc1-c1cn(CC2OCC(C)(C)CO2)nn1 [Compound I-871] |  | 

From US12617777B2, “GPR84 antagonists and uses thereof” (Liminal BioSciences Limited, priority 2021, dated 2026)
